# Laboratory results reported in PMC8947478, “Novel, First-in-Human, Oral PCLX-001 Treatment in a Patient with Relapsed Diffuse Large B-Cell Lymphoma” (Current Oncology, 2022).
# Entries after “also recorded” stand apart in the source; their conditions may differ.
# Columns and labels:
# [1] = animal models; cited from earlier work
# [2] = tested on: T cells, B cells, and monocyte population; test: Flow cytometry of live PBMC populations in the treated patient; format: in vivo, human
# Procedure: (§1) Peripheral blood was collected from the patient at each sampling point (Screen, Day 1, and Day 28 of treatment) by venipuncture according to normal phlebotomy practice in 2 × 8 mL BD Vacutainer® CPT™ Tubes. Samples were immediately mixed by gentle inversion 10 times and process for PBMC isolation within 1 h. After centrifugation (1800× g for 20 min) at room temperature (18–25 °C) in a swinging bucket rotor (swing-out head), the mononuclear cells and platelets (referred to as PBMC) were carefully collected as the whitish layer just above the polyester gel and under the plasma layer, transferred into 9 mL freezing media (8 mL Fetal Bovine Serum and 1 mL DMSO), and stored at −70 °C or below until flow cytometry analysis.
# (§2) PBMC were recovered by centrifugation (400× g for 5 min), washed in RPMI culture media, resuspended in PBS, and prepared for FACS analysis. PBMC were first labeled with Zombie Aqua™ Fixable Viability kit (1/100, 20 min at 4 °C; BioLegend, San Diego, CA, USA) for exclusion of dead cells, blocked with Human TruStain FcX Fc receptor blocking solution (5/100, 10 min at room temperature, BioLegend), then stained for extracellular markers using antibodies ECD-CD3 (clone UCHT1) and PE-Cy7-CD4 (clone SFCI12T4D11) from Beckman Coulter (Missaugua, ON, Canada) PerCp-Cy5.5-CD8 (SK-1) and BV-785CD19 (clone HIB19) from BioLegend, and PE-CF594-CD14 (clone MΦPG) from BD Bioscience (Mississauga, ON, Canada) for 20 min at 4 °C. The cells were then fixed and permeabilized using the eBioscience Intracellular Fixation and Permeabilization buffer set (Invitrogen, Mississauga, ON, Canada) and stained for intracellular markers AF-488-HGAL (clone 1H1-A7, eBioscience), AF-488-Lyn (Lyn-01, ab1890, Abcam, Cambridge, UK), and homemade monoclonal antibodies AF-700-NMT1(clone 6F8D5) and APC-NMT2 (clone 6C5E8), as previously described, in parallel with relevant isotype controls for at least 30 min at 4 °C. Prior to applying in the test, intracellular antibodies were first labeled with different fluorochromes using Lightning-Link conjugation kits (Abcam) and titrated to achieve the best concentration. Finally, samples were acquired on a Fortessa X-20 flow cytometer (BD Bioscences, Faculty of Medicine and Dentistry Flow Cytometry Facility, University of Alberta). Data were analyzed using FlowJo software (TreeStar, Ashland, OR, USA, version 10.8).
# [3] = tested on: human cancers grown in immunodeficient mice; settings: cited from earlier work
# HGAL [4] = test: Flow cytometry of intracellular HGAL level in PBMC populations; format: in vivo, human
# Procedure: as §1, §2
# Lyn [5] = test: Flow cytometry of intracellular Lyn level in PBMC populations; format: in vivo, human
# Procedure: as §1, §2
# [6] = Toxicity assessment in phase I trial (CTCAE version 5.0, DLT); format: in vivo, human; settings: patient, 20 mg oral daily
# Procedure: The subject was assessed for toxicity using daily diary entries, clinical assessments at baseline, day 8, day 15, day 22, and day 28. Dose-limiting toxicities (DLTs) were defined as the following cycle 1 CTCAE version 5.0 adverse events: Gr 4 platelets, Gr ≥ 3 platelets with bleeding and/or transfusions, Gr 4 ANC for ≥ 7 days, Gr ≥ 3 febrile neutropenia, and Gr ≥ 3 non-hematological toxicity.
# [7] = tested on: relapsed diffuse large B-cell lymphoma; test: Efficacy assessment by imaging (Lugano classification criteria); format: in vivo, human; settings: patient, 20 mg oral daily, CT on day 29
# Source text: The subject had baseline cross-sectional and PET imaging. Protocol-defined imaging was CT every 2 cycles and PET every 6 cycles or as clinically indicated. Evaluation of response was by the Lugano classification criteria for the evaluation of non-Hodgkin lymphoma.
# HGAL [8] = tested on: HGAL; set-up: method as in PMID 33093447; settings: multiple Burkitt Lymphoma and Diffuse Large B cell lymphoma cell lines; cited from earlier work
# [9] = tested on: hematologic and lymphoma cell lines; set-up: method as in PMID 33093447; settings: tissue culture; cited from earlier work
# Lyn [10] = tested on: Lyn; set-up: method as in PMID 33093447; settings: multiple Burkitt Lymphoma and Diffuse Large B cell lymphoma cell lines; cited from earlier work
# kinase = tested on: kinase; set-up: method as in PMID 33093447; settings: KINOMEscan; cited from earlier work
# [11] = cited from earlier work
# [12] = 20 mg daily, 28 days, all populations
structure (smiles),measurement,setting,value
"Cc1c(NS(=O)(=O)c2c(Cl)cc(-c3ccnc(N4CCNCC4)c3)cc2Cl)c(CC(C)C)nn1C [PCLX-001, 2,6-dichloro-N-(3-isobutyl-1,5-dimethyl-1H-pyrazol-4-yl)-4-(2-(piperazin-1-yl)pyridin-4-yl)benzenesulfonamide]",oral bioavailability,[1],complete oral bioavailability
same,"effect on live T cell, B cell and monocyte populations","[2]; 28 days of PCLX-001 treatment, 20 mg daily",only marginally affected
same,"CD19+ B cells, % of population ± CV, Day 28","[2]; live PBMC, 28 days of 20 mg daily, untreated: Screening 0.71, Day 1 1.18",0.59 ± 0.50%
same,"CD14+ monocytes, % of population ± CV, Day 28","[2]; live PBMC, 28 days of 20 mg daily, untreated: Screening 5.01, Day 1 14.2",4.51 ± 0.42%
same,"CD8+ T cells, % of population ± CV, Day 28","[2]; live PBMC, 28 days of 20 mg daily, untreated: Screening 25.1, Day 1 23.1",22.5 ± 0.31%
same,"CD4+ T cells, % of population ± CV, Day 28","[2]; live PBMC, 28 days of 20 mg daily, untreated: Screening 40.2, Day 1 42.5",46.8 ± 0.22%
same,"Total T cells (CD3+), % of population ± CV, Day 28","[2]; live PBMC, 28 days of 20 mg daily, untreated: Screening 66.6, Day 1 66.7",70.1 ± 0.50%
same,response in solid cancers,[3],tumour responses
same,response of human cancers grown in immunodeficient mice,[3],complete remissions
same,change of HGAL protein level in circulating blood mononuclear cells,HGAL [4]; [12],no clear change; also recorded: no apparent trend
same,"HGAL intracellular level, % of population ± CV, Day 28","HGAL [4]; CD4+ T cells, untreated: Screening 12.7, Day 1 22.1",8.6 ± 0.58%
same,"HGAL intracellular level, % of population ± CV, Day 28","HGAL [4]; CD8+ T cells, untreated: Screening 25, Day 1 30.3",17 ± 0.63%
same,"HGAL intracellular level, % of population ± CV, Day 28","HGAL [4]; CD14+ Monocytes, untreated: Screening 83.9, Day 1 87.5",88.3 ± 0.64%
same,"HGAL intracellular level, % of population ± CV, Day 28","HGAL [4]; CD19+ B cells, untreated: Screening 2.44, Day 1 11.2",8.33 ± 0.39%
same,change of HGAL expression in CD14+ monocytes,HGAL [4]; after 28 days of treatment,did not decrease
same,change of Lyn protein level in circulating blood mononuclear cells,Lyn [5]; [12],no clear change; also recorded: no apparent trend; also recorded: no significant decrease
same,"Lyn intracellular level, % of population ± CV, Day 28","Lyn [5]; CD4+ T cells, untreated: Screening 13.7, Day 1 20",28.7 ± 0.37%
same,"Lyn intracellular level, % of population ± CV, Day 28","Lyn [5]; CD8+ T cells, untreated: Screening 17.6, Day 1 25.8",33.3 ± 0.31%
same,"Lyn intracellular level, % of population ± CV, Day 28","Lyn [5]; CD14+ Monocytes, untreated: Screening 51.4, Day 1 40.5",66.6 ± 0.59%
same,"Lyn intracellular level, % of population ± CV, Day 28","Lyn [5]; CD19+ B cells, untreated: Screening 8.33, Day 1 12.4",12.1 ± 0.15%
same,dose-limiting toxicities,[6]; 28-day cycle,did not experience any dose-limiting toxicities; also recorded: no protocol-defined dose-limiting toxicities
same,hematopoietic profile and biochemistry,[6]; throughout the trial,"remained normal; also recorded: no evidence of toxicity to hematopoietic function, liver function, or kidney function"
same,response of lymphoma (Lugano classification criteria),[7],disease progression; also recorded: progression of the volume of lymphoma
same,HGAL protein level in vitro,HGAL [8],significantly decreased
same,inhibition of hematologic and lymphoma cell lines,[9],markedly inhibits
same,Lyn protein level in vitro,Lyn [10],significantly decreased
same,off-target kinase inhibition,kinase,no significant off-target kinase inhibition
same,cardiac conduction,[11]; animal non-clinical safety testing,no cardiac conduction issues
same,dose-limiting toxicity in GLP non-clinical safety testing,[11],diarrhea was dose-limiting
